Experimental data reported in patent publication US8088806B2 (Achillion Pharmaceuticals, Inc., priority 2005, dated 2012).

Test system: HCV replicon
Assay: Replicon based assay of HCV replication inhibition (NPT ELISA)
Format: cell-based, Hepatitis C virus
Settings: Hepatitis C virus, Huh-7, 72 h, Table III; Huh-7 HCV replicon-containing cells, three days; read-out: Activity
Procedure, shortened: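 NPT (neomycin phosphotransferase) content, proportional to replicon replication, quantified by capture ELISA on day four. Before that, replicon-bearing Huh-7 cells in G418-free screening medium were exposed three days at 37° C to compound, typically six doses from 10 to 0.03 micromolar, with equal DMSO across wells.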

`CCCC/C=C\CCOc1ccc(Nc2nc(-c3ccc(C)nc3)cs2)cc1C(F)(F)F` [compound 532, N-(4-((Z)-oct-3-enyloxy)-3-(trifluoromethyl)phenyl)-4-(6-methylpyridin-3-yl)thiazol-2-amine] and `CCCC/C=C\CCOc1ccc(Nc2nc(-c3ccc(F)cc3)cs2)cc1C(F)(F)F` [compound 533, N-(4-((Z)-oct-3-enyloxy)-3-(trifluoromethyl)phenyl)-4-(4-fluorophenyl)thiazol-2-amine] cannot be ordered by EC50: under 1000 nM for the first, under 1000 nM for the second.

`CCCCCOc1ccc(Nc2nc(-c3ccc4c(c3)OCO4)cs2)cc1C(F)(F)F` [compound 534, 4-(benzo[d][1,3]dioxol-6-yl)-N-(3-(trifluoromethyl)-4-(pentyloxy)phenyl)thiazol-2-amine] and `CCCCCOc1ccc(Nc2nc(-c3ccc(NC)nc3)cs2)cc1C(F)(F)F` [compound 535, 5-(2-(3-(trifluoromethyl)-4-(pentyloxy)phenylamino)thiazol-4-yl)-N-methylpyridin-2-amine] cannot be ordered by EC50: under 1000 nM for the first, under 1000 nM for the second.

`CCCCCCCCOc1ccc(Nc2nc(-c3ccc(NC)nc3)cs2)cc1C(F)(F)F` [compound 536, 5-(2-(3-(trifluoromethyl)-4-(octyloxy)phenylamino)thiazol-4-yl)-N-methylpyridin-2-amine] and `CCCCCCCCOc1ccc(Nc2nc(-c3ccc(N(C)C)nc3)cs2)cc1C(F)(F)F` [compound 541, 5-(2-(3-(trifluoromethyl)-4-(octyloxy)phenylamino)thiazol-4-yl)-N,N-dimethylpyridin-2-amine] cannot be ordered by EC50: under 1000 nM for the first, under 1000 nM for the second.

`CNc1ccc(-c2csc(Nc3ccc(OC4CCCC4)c(C(F)(F)F)c3)n2)cn1` [compound 537, 5-(2-(4-(cyclopentyloxy)-3-(trifluoromethyl)phenylamino)thiazol-4-yl)-N-methylpyndin-2-amine] and `CCCCCOc1ccc(Nc2nc(-c3cnc4ccccc4c3)cs2)cc1C(F)(F)F` [compound 538, N-(3-(trifluoromethyl)-4-(pentyloxy)phenyl)-4-(quinolin-3-yl)thiazol-2-amine] cannot be ordered by EC50: under 1000 nM for the first, under 1000 nM for the second.

Compared with `CCCCCCCCOc1ccc(Nc2nc(-c3cnc4ccccc4c3)cs2)cc1C(F)(F)F` [compound 539, N-(3-(trifluoromethyl)-4-(octyloxy)phenyl)-4-(quinolin-3-yl)thiazol-2-amine], `CCCCCOc1ccc(Nc2nc(-c3cc4cccnc4nc3O)cs2)cc1C(F)(F)F` [compound 543, 3-(2-(3-(trifluoromethyl)-4-(pentyloxy)phenylamino)thiazol-4-yl)-l,8-naphthyridin-2-ol] is higher in EC50: under 1000 nM for the first, 1000 to 10000 nM for the second. The first is the more potent here.

`CCCCCOc1ccc(Nc2nc(/C=C/c3cccc(Cl)c3)cs2)cc1C(F)(F)F` [compound 542, 4-(3-chlorostyryl)-N-(3-(trifluoromethyl)-4-(pentyloxy)phenyl)thiazol-2-amine] and `CCCCCCCCN(C)c1ccc(Nc2nc(-c3ccc(F)cc3)cs2)cc1C(F)(F)F` [compound 568, 2-(trifluoromethyl)-N^4-(4-(4-fluorophenyl)thiazol-2-yl)-N^1-methyl-N^1-octylbenzene-1,4-diamine] cannot be ordered by EC50: under 1000 nM for the first, under 1000 nM for the second.

`CCCCCCCCc1ccc(Nc2nc(-c3ccc(F)cc3)cs2)cc1` [compound 544, 4-(4-fluorophenyl)-N-(4-octylphenyl)thiazol-2-amine] and `CCCCCCCCc1ccc(Nc2nc(-c3ccc(Cl)cc3)cs2)cc1` [compound 555, 4-(4-chlorophenyl)-N-(4-octylphenyl)thiazol-2-amine] cannot be ordered by EC50: under 1000 nM for the first, under 1000 nM for the second.

`CCCCCCCCc1ccc(Nc2nc(-c3ccc(O)c(C(N)=O)c3)cs2)cc1` [compound 545, 5-(2-(4-octylphenylamino)thiazol-4-yl)-2-hydroxybenzamide] and `CCCCCCCc1ccc(Nc2nc(-c3ccc(O)c(C(N)=O)c3)cs2)cc1` [compound 557, 5-(2-(4-heptylphenylamino)thiazol-4-yl)-2-hydroxybenzamide] cannot be ordered by EC50: under 1000 nM for the first, under 1000 nM for the second.

`CCCCCCCCc1ccc(Nc2nc(-c3ccc(Cl)s3)cs2)cc1` [compound 546, 4-(5-chlorothiophen-2-yl)-N-(4-octylphenyl)thiazol-2-amine] and `CCCCCCCc1ccc(Nc2nc(-c3ccc(Cl)s3)cs2)cc1` [compound 558, 4-(5-chlorothiophen-2-yl)-N-(4-heptylphenyl)thiazol-2-amine] cannot be ordered by EC50: under 1000 nM for the first, under 1000 nM for the second.

`CCCCCCCCc1ccc(Nc2nc(-c3ccc(O)c(O)c3)cs2)cc1` [compound 547, 4-(2-(4-octylphenylamino)thiazol-4-yl)benzene-1,2-diol] and `CCCCCCCc1ccc(Nc2nc(-c3ccc(O)c(O)c3)cs2)cc1` [compound 559, 4-(2-(4-heptylphenylamino)thiazol-4-yl)benzene-1,2-diol] cannot be ordered by EC50: under 1000 nM for the first, under 1000 nM for the second.

`CCCCCCCCc1ccc(Nc2nc(-c3ccc4c(c3)NC(=O)CO4)cs2)cc1` [compound 548, 6-(2-(4-octylphenylamino)thiazol-4-yl)-2H-benzo[b][1,4]oxazin-3(4H)-one] and `CCCCCCCc1ccc(Nc2nc(-c3ccc4c(c3)NC(=O)CO4)cs2)cc1` [compound 560] cannot be ordered by EC50: under 1000 nM for the first, under 1000 nM for the second.

`CCCCCCCCc1ccc(Nc2nc(-c3ccc4[nH]c(=O)oc4c3)cs2)cc1` [compound 549, 6-(2-(4-octylphenylamrno)thiazol-4-yl)benzo[d]oxazol-2(3H)-one] and `CCCCCCCc1ccc(Nc2nc(-c3ccc4[nH]c(=O)oc4c3)cs2)cc1` [compound 561] cannot be ordered by EC50: under 1000 nM for the first, under 1000 nM for the second.

`CCCCCCCCc1ccc(Nc2nc(-c3ccc(OCC(=O)O)cc3)c(C)s2)cc1` [compound 550, 2-(4-(2-(4-octylphenylamino)-5-methylthiazol-4-yl)phenoxy)acetic acid] and `CCCCCCCc1ccc(Nc2nc(-c3ccc(OCC(=O)O)cc3)c(C)s2)cc1` [compound 562, 2-(4-(2-(4-heptylphenylamino)-5-methylthiazol-4-yl)phenoxy)acetic acid] cannot be ordered by EC50: under 1000 nM for the first, under 1000 nM for the second.

`CCCCCCCCc1ccc(Nc2nc(-c3ccccn3)cs2)cc1` [compound 551, N-(4-octylphenyl)-4-(pyridin-2-yl)thiazol-2-amine] and `CCCCCCCc1ccc(Nc2nc(-c3ccccn3)cs2)cc1` [compound 563, N-(4-heptylphenyl)-4-(pyridin-2-yl)thiazol-2-amine] cannot be ordered by EC50: under 1000 nM for the first, under 1000 nM for the second.

`CCCCCCCCc1ccc(Nc2nc(-c3ccc(-c4ccccn4)s3)cs2)cc1` [compound 552, N-(4-octylphenyl)-4-(5-(pyridin-2-yl)thiophen-2-yl)thiazol-2-amine] and `CCCCCCCc1ccc(Nc2nc(-c3ccc(-c4ccccn4)s3)cs2)cc1` [compound 564, N-(4-heptylphenyl)-4-(5-(pyridin-2-yl)thiophen-2-yl)thiazol-2-amine] cannot be ordered by EC50: under 1000 nM for the first, under 1000 nM for the second.

First: CCCCCCCCc1ccc(Nc2nc(-c3cc4ccccc4o3)cs2)cc1 [compound 553, 4-(benzofuran-2-yl)-N-(4-octylphenyl)thiazol-2-amine]
Second: CCCCCCCc1ccc(Nc2nc(-c3cc4ccccc4o3)cs2)cc1 [compound 565, 4-(benzofuran-2-yl)-N-(4-heptylphenyl)thiazol-2-amine]
The EC50 of the first is lower: 1000 to 10000 nM for the first, over 10000 nM for the second. The first is the more potent here.

`CCCCCCCCc1ccc(Nc2nc(-c3sc(-c4cnccn4)nc3C)cs2)cc1` [compound 554, 4-(4-methyl-2-(pyrazin-2-yl)thiazol-5-yl)-N-(4-octylphenyl)thiazol-2-amine] and `CCCCCCCc1ccc(Nc2nc(-c3sc(-c4cnccn4)nc3C)cs2)cc1` [compound 566, N-(4-heptylphenyl)-4-(4-methyl-2-(pyrazin-2-yl)thiazol-5-yl)thiazol-2-amine] cannot be ordered by EC50: under 1000 nM for the first, under 1000 nM for the second.

`CCCCCCCc1ccc(Nc2nc(-c3ccc(Cl)cc3)cs2)cc1` [compound 567, 4-(4-chlorophenyl)-N-(4-heptylphenyl)thiazol-2-amine] and `CCCCCCCCN(C)c1ccc(Nc2nc(-c3ccc(O)c(O)c3)cs2)cc1C(F)(F)F` [compound 571, 4-(2-(4-(N-methyl-N-octylamino)-3-(trifluoromethyl)phenylamino)thiazol-4-yl)benzene-1,2-diol] cannot be ordered by EC50: under 1000 nM for the first, under 1000 nM for the second.

`CCCCCCCCN(C)c1ccc(Nc2nc(-c3ccc(O)c(C(N)=O)c3)cs2)cc1C(F)(F)F` [compound 569, 5-(2-(4-(N-methyl-N-octylamino)-3-(trifluoromethyl)phenylamino)thiazol-4-yl)-2-hydroxybenzamide] and `CCCCCCCCN(C)c1ccc(Nc2nc(-c3ccc4[nH]c(=O)oc4c3)cs2)cc1C(F)(F)F` [compound 573, 6-(2-(4-(N-methyl-N-octylamino)-3-(tnfluoromethyl)phenylamino)azol-4-yl)benzo[d]oxazol-2(3H)-one] cannot be ordered by EC50: under 1000 nM for the first, under 1000 nM for the second.

`CCCCCCCCN(C)c1ccc(Nc2nc(-c3ccc(Cl)s3)cs2)cc1C(F)(F)F` [compound 570, N^4-(4-(5-chlorothiophen-2-yl)thiazol-2-yl)-2-(trifluoromethyl)-N^1-methyl-N^1-octylbenzene-1,4-diamine] and `CCCCCCCCN(C)c1ccc(Nc2nc(-c3ccc(-c4ccccn4)s3)cs2)cc1C(F)(F)F` [compound 576, 2-(trifluoromethyl)-N^1-methyl-N^1-octyl-N^4-(4-(5-(pyridin-2-yl)thiophen-2-yl)thiazol-2-yl)benzene-1,4-diamine] cannot be ordered by EC50: under 1000 nM for the first, under 1000 nM for the second.

`CCCCCCCCN(C)c1ccc(Nc2nc(-c3ccc4c(c3)NC(=O)CO4)cs2)cc1C(F)(F)F` [compound 572, 6-(2-(4-(N-methyl-N-octylamino)-3-(trifluoromethyl)phenylamino)thiazol-4-yl)-2H-benzo[b][1,4]oxazin-3(4H)-one] and `CCCCCCCCN(C)c1ccc(Nc2nc(-c3cc4ccccc4o3)cs2)cc1C(F)(F)F` [compound 577, N^4-(4-(benzofuran-2-yl)thiazol-2-yl)-2-(trifluoromethyl)-N^1-methyl-N^1-octylbenzene-1,4-diamine] fall in the same range of EC50: 1000 to 10000 nM for the first, 1000 to 10000 nM for the second.

For `CCCCCCCCN(C)c1ccc(Nc2nc(-c3ccc(OCC(=O)O)cc3)c(C)s2)cc1C(F)(F)F` [compound 574, 2-(4-(2-(4-(N-methyl-N-octylamino)-3-(trifluoromethyl)phenylamino)-5-methylthiazol-4-yl)phenoxy)acetic acid], the EC50 was under 1000 nM.
